What all share (type): functional, cell-based
The test system of one assay is SK-MEL-28. As to the kind of experiment: The compound was evaluated for antitumoral activity against human melanoma cell line P36 after 72 hr of incubation. The settings on record: SK-MEL-28, 72 h.
In the next assay the test system is CCRF-CEM. Put plainly: The compound was evaluated for antitumoral activity against human leukemia cell line CCRF CEM after 72 hr of incubation.
The subject of a further assay is SW480. Put plainly: The compound was evaluated for antitumoral activity against human cancer cell line SW480 after 72 hr of incubation. The settings on record: SW480, 72 h.
For a further assay, the system named is T-24. As to the kind of experiment: The compound was evaluated for antitumoral activity against human cancer cell line T24 after 72 hr of incubation. The settings on record: T-24, 72 h.
The subject of the next assay is L1210/C. Put plainly: The compound was evaluated for antitumoral activity against mouse leukemia cell line L1210/c after 72 hr of incubation. To be noted: L1210, 72 h.

Each structure is given as a SMILES string. In brackets after ≈: the same amount, converted by molar mass.

As for `O=c1[nH]cc(F)c(=O)[nH]1` [FLUOROURACIL], the IC50 in the assay with SK-MEL-28 was determined as 11 µg/mL (≈ 84.6 µM); in the assay with CCRF-CEM it was 4 µg/mL (≈ 30.8 µM); in the assay on SW480, 6 µg/mL (≈ 46.1 µM); in the assay with T-24 it was 6 µg/mL (≈ 46.1 µM); in the assay with L1210/C, 0.2 µg/mL (≈ 1.54 µM).
Turning to `C=C1CC(C(F)F)OC1=O` (stereo not given), the IC50 with SK-MEL-28 was 2 µg/mL (≈ 13.5 µM); with CCRF-CEM it was 4 µg/mL (≈ 27 µM); with SW480 it was 4 µg/mL (≈ 27 µM); in the assay on T-24, 0.5 µg/mL (≈ 3.38 µM); in the assay with L1210/C, 3 µg/mL (≈ 20.3 µM).
